Values quoted from earlier work, collected in patent US20260337208A1, “HETEROCYCLIC DERIVATIVES AS JANUS KINASE INHIBITORS” (CHIESI FARMACEUTICI S.P.A., priority 2022, published 2026).

How the values were obtained:
[1] = RA patients, including a subgroup with interstitial lung disease; cited from earlier work
[2] = cited from earlier work; for admission rate of the intensive care unit / incidence of acute respiratory distress syndrome (ARDS) / risk of mortality / use of invasive mechanical ventilation: COVID-19
[3] = bleomycin-induced fibrosis mouse model; cited from earlier work
[4] = test system: OVA-challenged mice; settings: given as dry powder; cited from earlier work
[5] = test system: mouse model of chronic exposure to AAH allergens; settings: cited from earlier work
[6] = in vivo; cited from earlier work
[7] = in combination with nintedanib; case report; cited from earlier work
[8] = test system: house dust mite mouse model of asthma; settings: formulated for being administered as aerosol; cited from earlier work

**Q.** With `CCS(=O)(=O)N1CC(CC#N)(n2cc(-c3ncnc4[nH]ccc34)cn2)C1` [Baricitinib, baricitinib] as the molecule, how does the “biomarkers' levels of lung fibrosis and inflammation” value [1] read?
**A.** Its value is “reduces the biomarkers' levels of lung fibrosis and inflammation”.

**Q.** What about the “safety as immune modulator” value [1] of the same molecule?
**A.** Its value is “safe immune modulator”.

**Q.** What about the “admission rate of the intensive care unit” value [2] of the same molecule?
**A.** The value was “borderline impact”.

**Q.** And the “incidence of acute respiratory distress syndrome (ARDS)” value [2]?
**A.** The value was “borderline impact”.

**Q.** And the risk of mortality [2]?
**A.** The risk of mortality was “reduced risk of mortality”.

**Q.** And the “use of invasive mechanical ventilation” value [2]?
**A.** The value was “reduced the use of invasive mechanical ventilation”.

**Q.** Which “fibrotic lesions in lung” value [3] does the source give for `N#CC[C@H](C1CCCC1)n1cc(-c2ncnc3[nH]ccc23)cn1` [Ruxolitinib, ruxolitinib] here?
**A.** The value was “ameliorated the fibrotic lesions in lung”.

**Q.** What about the “levels of fibrotic molecular markers” value [3] of the same molecule?
**A.** The value was “reduced levels of fibrotic molecular markers”.

**Q.** And the “admission rate of the intensive care unit” value [2]?
**A.** The value was “borderline impact”.

**Q.** What about the “incidence of acute respiratory distress syndrome (ARDS)” value [2] of the same molecule?
**A.** Its value is “borderline impact”.

**Q.** And the risk of mortality [2]?
**A.** The risk of mortality was “reduced risk of mortality”.

**Q.** What about the “use of invasive mechanical ventilation” value [2] of the same molecule?
**A.** Its value is “reduced the use of invasive mechanical ventilation”.

**Q.** What about the “clinical symptoms and chest computed tomography images” value ([2]; COVID-19 patients) of the same molecule?
**A.** The value was “improved the clinical symptoms and chest computed tomography images”.

**Q.** For `CN(CCC#N)C1CCN(C(=O)Cn2cc(NC(=O)c3cnn4cccnc34)c(-c3cc(Cl)ccc3OC(F)F)n2)CC1` [iJak-381], which BAL eosinophilia [4] is on record?
**A.** Its BAL eosinophilia is “reduced”.

**Q.** What about the CCL11 [4] of the same molecule?
**A.** Its CCL11 is “reduced”.

**Q.** What about the Muc5AC [4] of the same molecule?
**A.** Its Muc5AC is “reduced”.

**Q.** What about the airway resistance [4] of the same molecule?
**A.** The airway resistance was “reduced”.

**Q.** And the BAL eosinophilia [5]?
**A.** The BAL eosinophilia was “reduced”.

**Q.** And the CCL11 [5]?
**A.** The CCL11 was “reduced”.

**Q.** And the CXCL1 [5]?
**A.** Its CXCL1 is “reduced”.

**Q.** And the neutrophilia [5]?
**A.** Its neutrophilia is “reduced”.

**Q.** With `C[C@@H]1CCN(C(=O)CC#N)C[C@@H]1N(C)c1ncnc2[nH]ccc12` [tofacitinib] as the molecule, how does the “preventive effect in experimental dermal and pulmonary fibrosis” value [6] read?
**A.** Its value is “acted as a preventive agent”.

**Q.** What about the “efficacy and safety in aggressive interstitial lung disease” value [7] of the same molecule?
**A.** The value was “corroborated the efficacy and safety”.

**Q.** What about the eosinophils count [8] of the same molecule?
**A.** The eosinophils count was “reduced eosinophils count”.
